Measured values from ChEMBL document CHEMBL1136197, “Anilinopyrazole as selective CDK2 inhibitors: design, synthesis, biological evaluation, and X-ray crystallographic analysis” (Bioorg Med Chem Lett, 2003).

How the values were obtained:
[1] = target: Cyclin-dependent kinase 1 (Homo sapiens, UniProt P06493); experiment: Inhibition of Cyclin-dependent kinase 1
[2] = target: Cyclin-dependent kinase 2 (Homo sapiens, UniProt P24941); experiment: In vitro inhibition of Cyclin-dependent kinase 2 was determined.

Sequence of Cyclin-dependent kinase 1 (P06493 whole entry): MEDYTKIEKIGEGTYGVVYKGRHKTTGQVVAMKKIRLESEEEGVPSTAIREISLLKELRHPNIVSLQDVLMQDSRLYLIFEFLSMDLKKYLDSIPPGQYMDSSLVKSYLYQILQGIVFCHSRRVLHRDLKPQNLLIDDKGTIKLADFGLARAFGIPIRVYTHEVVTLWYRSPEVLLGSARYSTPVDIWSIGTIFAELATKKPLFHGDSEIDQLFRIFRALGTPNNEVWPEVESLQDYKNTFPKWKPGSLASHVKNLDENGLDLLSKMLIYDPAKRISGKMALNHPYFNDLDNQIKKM

SMILES | IC50 [1] | IC50 [2]
NS(=O)(=O)c1ccc(Nc2cc(-c3cccc(O)c3)n[nH]2)cc1 [GW831090X] | 0.398 µM | 0.0091 µM
NS(=O)(=O)c1ccc(Nc2cc(-c3cccc(N4CCOCC4)c3)n[nH]2)cc1 |  | 0.49 µM
Nc1cccc(-c2cc(Nc3ccc(S(N)(=O)=O)cc3)[nH]n2)c1 |  | 0.166 µM
NS(=O)(=O)c1ccc(Nc2cc(-c3cccc(NC(=O)Nc4cc(C(F)(F)F)ccc4F)c3)n[nH]2)cc1 | 0.794 µM | 0.0616 µM
NS(=O)(=O)c1ccc(Nc2cc(-c3ccc(O)c(F)c3)n[nH]2)cc1 [GW831091X] | 0.2 µM | 0.0126 µM
NS(=O)(=O)c1ccc(Nc2cc(-c3ccc(Br)cc3)n[nH]2)cc1 | 0.126 µM | 0.01 µM
CS(=O)(=O)Nc1cccc(-c2cc(Nc3ccc(S(N)(=O)=O)cc3)[nH]n2)c1 | 0.501 µM | 0.0107 µM
COc1ccc(-c2cc(Nc3ccc(S(N)(=O)=O)cc3)[nH]n2)cc1F |  | 0.407 µM
NS(=O)(=O)c1ccc(Nc2cc(-c3ccc([N+](=O)[O-])cc3)n[nH]2)cc1 |  | 0.00033 µM
CS(=O)(=O)Nc1ccc(Nc2cc(-c3cccc(Br)c3)n[nH]2)cc1 |  | 0.602 µM
Nc1ccc(-c2cc(Nc3ccc(S(N)(=O)=O)cc3)[nH]n2)cc1 | 0.501 µM | 0.00034 µM
CN(C)c1ccc(-c2cc(Nc3ccc(S(N)(=O)=O)cc3)[nH]n2)cc1 |  | > 2 µM
NS(=O)(=O)c1ccc(Nc2cc(-c3ccc(F)cc3)n[nH]2)cc1 |  | 0.0174 µM
NS(=O)(=O)c1ccc(Nc2cc(-c3cccc(Br)c3)n[nH]2)cc1 |  | 0.0234 µM
NS(=O)(=O)c1ccc(Nc2cc(-c3cccc(NS(=O)(=O)c4ccccc4)c3)n[nH]2)cc1 | 0.501 µM | 0.0107 µM
NS(=O)(=O)c1cccc(Nc2cc(-c3ccc(F)cc3)n[nH]2)c1 |  | 0.871 µM
COc1cccc(-c2cc(Nc3ccc(S(N)(=O)=O)cc3)[nH]n2)c1 | 0.398 µM | 0.0245 µM
